Measured values published in patent US20120129897A1, “BIS HETEROARYL INHIBITORS OF PRO-MATRIX METALLOPROTEINASE ACTIVATION” (priority 2010, published 2012).
Structures can show the parent of a compound that is named as a salt.

Key:
[1] = target: T1, proMMP13(1-268) (SEQ ID NO:7) (Homo sapiens, UniProt P45452); experiment: ThermoFluor binding assay with proMMP13(1-268); design: 6x-histidine (C); made in house
Protocol: (§1) The ThermoFluor® (TF) assay is a 384-well plate-based binding assay that measures thermal stability of proteins (Biomol Screen 2001, 6, 429-40; Biochemistry 2005, 44, 5258-66). The experiments were carried out using instruments available from Johnson & Johnson Pharmaceutical Research & Development, LLC. TF dye used in all experiments was […] (1,8-ANS) (Invitrogen: A-47).
(§2) Compounds were arranged in a pre-dispensed plate (Greiner Bio-one: 781280), wherein compounds were serially diluted in 100% DMSO across 11 columns within a series. Columns 12 and 24 were used as DMSO reference and contained no compound. For multiple compound concentration-response experiments, the compound aliquots ([…]) were robotically predispensed directly into black 384-well polypropylene PCR microplates (Abgene: TF-0384/k) using a Cartesian Hummingbird liquid handler (DigiLab, Holliston, Mass.). Following compound dispense, protein and dye solutions were added to achieve the final assay volume of 3 μL. The assay solutions were overlayed with 1 μL of silicone oil (Fluka, type DC 200: 85411) to prevent evaporation.
(§3) Assay plates were robotically loaded onto a thermostatically controlled PCR-type thermal block and then heated from 40 to 90° C. at a ramp-rate of 1° C./min for all experiments. Fluorescence was measured by continuous illumination with UV light (Hamamatsu LC6) supplied via fiber optics and filtered through a band-pass filter (380-400 nm; >60D cutoff). Fluorescence emission of the entire 384-well plate was detected by measuring light intensity using a CCD camera (Sensys, Roper Scientific) filtered to detect 500±25 nm, resulting in simultaneous and independent readings of all 384 wells. A single image with 20-sec exposure time was collected at each temperature, and the sum of the pixel intensity in a given area of the assay plate was recorded vs temperature and fit to standard equations to yield the Tm (J Biomol Screen 2001, 6, 429-40).
(§4) Thermodynamic parameters necessary for fitting compound binding for each proMMP were estimated by differential scanning calorimetry (DSC) and from ThermoFluor® data. The heat capacity of unfolding for each protein was estimated from the molecular weight and from ThermoFluor® dosing data.
The proMMP13(1-268) (SEQ ID NO:7) protein sample preparations included a desalting buffer exchange step via a PD-10 gravity column (GE Healthcare). The desalting buffer exchange was performed prior to diluting the protein to the final assay concentration of 3.5 μM. The concentration of proMMP13(1-268) (SEQ ID NO:7) was estimated spectrophotometrically based on a calculated extinction coefficient of ε280=37000 M^−1cm^−1, a calculated molecular weight of 30.8 kDa, and calculated pI of 5.33. ThermoFluor® reference conditions were defined as follows: 100 μg/mL proMMP13(1-268) (SEQ ID NO:7), 25 μM 1,8-ANS, pH 7.0 Buffer (50 mM HEPES pH 7.0, 100 mM NaCl, 0.001% Tween-20, 2.5 mM MgCl2, 300 μM CaCl2). The thermodynamic parameters for proMMP13(1-268) (SEQ ID NO:7) are as follows: Tm (° C.)=67 (+/−0.1), ΔUH(Tm) (cal mol^−1)=107000(+/−5000), ΔUS(Tm) (cal mol^−1 K^−1)=318, ΔUCp (cal mol^−1 K^−1)=2600.

[2] = target: T2, full-length proMMP9(1-707) (SEQ ID NO:1) (Homo sapiens, UniProt P14780, R574P); experiment: proMMP9/MMP3 P126 Activation Assay; format: biochemical; settings: 20 nM proMMP9, 20 nM MMP3, 80 min 37° C.
T2 construct: made in house; host or cells: HEK293 (proMMP9, secreted); E. coli (MMP3)
Protocol: The reaction volume was 50 μL. […] Reactivity of residual MMP3 towards P-126 substrate was minimal under these conditions.

[3] = target: T3, proMMP9(67-444;ΔFnII) (SEQ ID NO:5) (Homo sapiens, UniProt P14780, DEL216-390); experiment: ThermoFluor binding assay with proMMP9(67-444;ΔFnII)
T3 construct: start methionine (N); made in house; host or cells: E. coli BL21(DE3) RIL
T3 sequence (P14780 with tags, fused parts or gaps DEL216-390): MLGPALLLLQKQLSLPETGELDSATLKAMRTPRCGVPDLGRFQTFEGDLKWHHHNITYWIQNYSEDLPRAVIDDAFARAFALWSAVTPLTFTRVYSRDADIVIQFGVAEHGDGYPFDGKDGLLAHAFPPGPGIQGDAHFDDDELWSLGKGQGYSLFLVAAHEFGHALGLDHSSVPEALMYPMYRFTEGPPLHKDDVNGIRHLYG
Protocol: as §1, §2, §3, §4
The protein sample preparations had to include a desalting buffer exchange step via a PD-10 gravity column (GE Healthcare). The desalting buffer exchange was performed prior to diluting the protein to the final assay concentration of 3.5 μM proMMP9(67-444;ΔFnII) (SEQ ID NO:5). The concentration of proMMP9(67-444;ΔFnII) (SEQ ID NO:5) was determined spectrophotometrically based on a calculated extinction coefficient of ε280=33900 M^−1cm^−1, a calculated molecular weight of 22.6 kDa, and calculated pI of 5.20. ThermoFluor® reference conditions were defined as follows: 80 μg/mL (3.5 μM) proMMP9(67-444;ΔFnII) (SEQ ID NO:5), 50 μM 1,8-ANS, pH 7.0 Buffer (50 mM HEPES pH 7.0, 100 mM NaCl, 0.001% Tween-20, 2.5 mM MgCl2, 300 μM CaCl2). The thermodynamic parameters for proMMP9(67-444;ΔFnII) (SEQ ID NO:5) are as follows: Tm (° C.)=63 (+/−0.1), ΔUH(Tm) (cal mol^−1)=105000(+/−5000), ΔUS(Tm) (cal mol^−1 K^−1)=[…], ΔUCp (cal mol^−1 K^−1)=2000.

[4] = target: T4, proMMP9(20-445;ΔFnII) (SEQ ID NO:6) (Homo sapiens, UniProt P14780, DEL216-390); experiment: ThermoFluor binding assay with proMMP9(20-445;ΔFnII)
T4 construct: start methionine (N); made in house; host or cells: E. coli BL21(DE3) RIL
T4 sequence (P14780 with tags, fused parts or gaps DEL216-390): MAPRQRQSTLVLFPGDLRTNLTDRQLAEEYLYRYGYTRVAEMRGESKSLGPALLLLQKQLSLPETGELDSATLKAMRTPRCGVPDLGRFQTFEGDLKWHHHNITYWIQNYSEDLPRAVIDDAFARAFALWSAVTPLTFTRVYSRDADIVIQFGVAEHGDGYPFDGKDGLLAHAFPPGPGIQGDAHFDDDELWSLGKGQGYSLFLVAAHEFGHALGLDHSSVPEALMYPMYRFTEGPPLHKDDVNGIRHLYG
Protocol: as §1, §2, §3, §4
The protein sample preparations included a desalting buffer exchange step via a PD-10 gravity column (GE Healthcare). The desalting buffer exchange was performed prior to diluting the protein to the final assay concentration of 2.8 μM proMMP9(20-445;ΔFnII) (SEQ ID NO:6). The concentration of proMMP9(20-445;ΔFnII) (SEQ ID NO:6) was determined spectrophotometrically based on a calculated extinction coefficient of ε280=39880 M^−1cm^−1, a calculated molecular weight of 28.2 kDa, and calculated pI of 5.5. ThermoFluor® reference conditions were define as follows: 80 μg/mL (2.8 μM) proMMP9(20-445;ΔFnII) (SEQ ID NO:6), 50 μM 1,8-ANS, pH 7.0 Buffer (50 mM HEPES pH 7.0, 100 mM NaCl, 0.001% Tween-20, 2.5 mM MgCl2, 300 μM CaCl2). The thermodynamic parameters for proMMP9(20-445;ΔFnII) (SEQ ID NO:6) are as follows: Tm (° C.)=72 (+/−0.1), ΔUH(Tm) (cal mol^−1)=160000(+/−5000), ΔUS(Tm) (cal mol^−1 K^−1)=434, ΔUCp ([…])=2400.

[5] = target: T1, proMMP13(1-268) (SEQ ID NO:7); experiment: ProMMP13/Plasmin P126 Activation Assay; format: biochemical; design: 6x-histidine (C); made in house; host or cells: HEK293 (transient transfection, secreted); settings: 8 nM proMMP13, 16 nM plasmin, 40 min 37° C.
Protocol: On the day of assay, proMMP13(1-268) (SEQ ID NO:7) purified from HEK293 cells and plasmin were diluted to 160 nM and 320 nM, respectively, in assay buffer. The reaction volume was 50 μL. […] The plate was sealed and incubated for 40 min at 37° C. […] Plasmin was not reactive towards P-126 substrate under these conditions.

T2 sequence (P14780 20-707 R574P): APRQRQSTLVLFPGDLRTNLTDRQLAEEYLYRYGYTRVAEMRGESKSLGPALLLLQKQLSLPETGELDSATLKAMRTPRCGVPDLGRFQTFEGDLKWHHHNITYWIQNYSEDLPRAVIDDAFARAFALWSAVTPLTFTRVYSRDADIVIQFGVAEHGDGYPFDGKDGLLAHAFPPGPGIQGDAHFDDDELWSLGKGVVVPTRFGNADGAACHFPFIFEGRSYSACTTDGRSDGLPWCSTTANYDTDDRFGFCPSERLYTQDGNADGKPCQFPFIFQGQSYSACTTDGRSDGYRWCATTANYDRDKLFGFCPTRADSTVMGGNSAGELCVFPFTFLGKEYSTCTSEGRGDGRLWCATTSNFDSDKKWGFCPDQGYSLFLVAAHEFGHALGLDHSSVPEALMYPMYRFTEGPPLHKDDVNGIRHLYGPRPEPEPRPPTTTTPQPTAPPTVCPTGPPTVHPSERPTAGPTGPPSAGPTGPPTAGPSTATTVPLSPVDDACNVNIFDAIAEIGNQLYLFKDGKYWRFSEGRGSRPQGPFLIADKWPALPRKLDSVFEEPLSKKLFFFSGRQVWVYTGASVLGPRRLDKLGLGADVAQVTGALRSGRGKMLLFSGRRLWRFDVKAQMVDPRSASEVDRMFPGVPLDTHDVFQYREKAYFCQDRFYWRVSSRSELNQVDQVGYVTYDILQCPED

| Kd [1] | IC50 [2] | Kd [3] | Kd [4] | IC50 [5] | SMILES |
| --- | --- | --- | --- | --- | --- |
| 1.6 µM | 2.3 µM | 8.6 µM | 4.7 µM | – | Cc1nc(C)n(C)c1-c1csc(Nc2cc(S(N)(=O)=O)ccc2OC(C)C)n1 [Example 1, 4-Isopropoxy-3-[4-(2,3,5-trimethyl-3H-imidazol-4-yl)-thiazol-2-ylamino]-benzenesulfonamide] |
| 10 µM | ~6 µM | 33.2 µM | 12 µM | – | Cc1nc(-c2csc(Nc3cc(S(N)(=O)=O)ccc3OC(C)C)n2)c(C)n1C [Example 2, 4-Isopropoxy-3-[4-(1,2,5-trimethyl-1H-imidazol-4-yl)-thiazol-2-ylamino]-benzenesulfonamide.TFA] |
| 5.1 µM | 0.79 µM | > 95 µM | 4.8 µM | – | Cc1nc(-c2csc(Nc3cc(C(N)=O)ccc3OC(C)C)n2)c(C)[nH]1 [Example 3, 3-[4-(2,5-Dimethyl-1H-imidazol-4-yl)-thiazol-2-ylamino]-4-isopropoxy-benzamide.TFA] |
| > 95 µM | ~5 µM | 36 µM | 76 µM | – | CCOc1ccc(C#N)cc1Nc1nc(-n2cc(C)nc2C)cs1 [Example 4, 3-[4-(2,4-Dimethyl-imidazol-1-yl)-thiazol-2-ylamino]-4-ethoxy-benzonitrile] |
| 17 µM | – | 14 µM | 8.9 µM | – | CCOc1ccc(C#N)cc1Nc1nc(-c2cnn(C)c2)cs1 [Example 5, 4-Ethoxy-3-[4-(1-methyl-1H-pyrazol-4-yl)-thiazol-2-ylamino]-benzonitrile] |
| 6.1 µM | 0.27 µM | 7.2 µM | 0.17 µM | 6 µM | Cc1nc(C)c(-c2csc(Nc3cc(C(N)=O)ccc3OC(C)C)n2)o1 [Example 6, 3-[4-(2,4-Dimethyl-oxazol-5-yl)-thiazol-2-ylamino]-4-isopropoxy-benzamide] |
| – | 1.9 µM | 42 µM | 5.9 µM | – | Cc1nc(C)n(C)c1-c1csc(Nc2cc(C(N)=O)ccc2OC(C)C)n1 [Example 7, 4-Isopropoxy-3-[4-(2,3,5-trimethyl-3H-imidazol-4-yl)-thiazol-2-ylamino]-benzamide.TFA] |
